Experimental data reported in patent US9598423B2 (BRISTOL-MYERS SQUIBB COMPANY, priority 2013, dated 2017).

Assays:
CK1ε = CK1ε (Homo sapiens (Human), UniProt P49674); experiment: CK1ε kinase assay (Caliper LABCHIP electrophoretic separation of fluoresceinated peptide substrate and product); type: biochemical; conditions: 200 pM CK1ε, 50 μM ATP, 1.5 μM peptide substrate, 22 hours at room temperature; read-out: CK1ε (IC50)
Method: (§1) CK1ε and CK1δ Kinase Assays
(§2) The kinase assay was performed in V-bottom 384-well plates. […] The reaction was incubated at room temperature for 22 hours and terminated by adding 45 μl of 35 mM EDTA to each sample. The reaction mixture was analyzed on the Caliper LABCHIP®3000 (Caliper, Hopkinton, Mass.) by electrophoretic separation of the unphosphorylated substrate and phosphorylated product. […] Compounds were dissolved at 10 mM in dimethylsulfoxide (DMSO) and evaluated at eleven concentrations. IC50 values were derived by non-linear regression analysis.

CK1δ = CK1δ (Homo sapiens (Human), UniProt P48730); experiment: CK1δ kinase assay (Caliper LABCHIP electrophoretic separation of fluoresceinated peptide substrate and product); type: biochemical; conditions: 200 pM CK1δ, 50 μM ATP, 1.5 μM peptide substrate, 22 hours at room temperature; read-out: CK1δ (IC50)
Method: as §1, §2

Sequence of CK1δ (P48730 whole entry): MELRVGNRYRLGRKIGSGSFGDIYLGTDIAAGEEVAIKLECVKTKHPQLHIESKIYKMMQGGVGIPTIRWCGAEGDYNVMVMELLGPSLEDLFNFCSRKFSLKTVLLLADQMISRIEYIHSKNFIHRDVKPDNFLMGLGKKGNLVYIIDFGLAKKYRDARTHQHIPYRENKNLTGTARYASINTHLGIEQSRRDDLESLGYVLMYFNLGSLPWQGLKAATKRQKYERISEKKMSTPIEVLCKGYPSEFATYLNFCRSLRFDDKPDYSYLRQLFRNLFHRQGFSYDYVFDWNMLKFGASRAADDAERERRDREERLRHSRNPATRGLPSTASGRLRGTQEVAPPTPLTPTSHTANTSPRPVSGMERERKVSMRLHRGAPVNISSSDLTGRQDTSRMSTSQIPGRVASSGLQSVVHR
Sequence of CK1ε (P49674 whole entry): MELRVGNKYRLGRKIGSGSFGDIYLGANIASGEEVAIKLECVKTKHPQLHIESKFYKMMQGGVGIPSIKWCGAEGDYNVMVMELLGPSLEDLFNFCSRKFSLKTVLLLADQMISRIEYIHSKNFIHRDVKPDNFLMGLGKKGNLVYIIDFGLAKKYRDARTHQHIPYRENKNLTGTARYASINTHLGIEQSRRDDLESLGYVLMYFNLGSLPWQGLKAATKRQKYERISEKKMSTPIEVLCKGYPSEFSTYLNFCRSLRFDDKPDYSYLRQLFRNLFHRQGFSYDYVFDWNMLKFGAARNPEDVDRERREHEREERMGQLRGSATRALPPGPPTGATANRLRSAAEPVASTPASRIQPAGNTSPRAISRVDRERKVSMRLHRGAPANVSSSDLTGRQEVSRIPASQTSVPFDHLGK

SMILES	IC50 (CK1ε)	IC50 (CK1δ)
NC(=O)c1c(-c2ccc(F)c(F)c2)nn2c1CN(C(=O)Nc1ccc3c(c1)OC(F)(F)O3)CC2 [Compound 232, N^5-(2,2-Difluorobenzo [d][1,3]dioxol-5-yl)-2-(3,4-difluorophenyl)-6,7-dihydropyrazolo [1,5-a]pyrazine-3,5(4H)-dicarboxamide]	0.01 to 10 nM	0.01 to 10 nM
CC(C)(O)[C@H]1CN(C(=O)Nc2ccc(C#N)cc2)Cc2c(C(N)=O)c(-c3ccc(Cl)c(Cl)c3)nn21 (single isomer, unassigned) [Compound A35, N^5-(4-Cyanophenyl)-2-(3,4-dichlorophenyl)-7-(2-hydroxypropan-2-yl)-6,7-dihydropyrazolo[1,5-a]pyrazine-3,5(4H)-dicarboxamide]	0.01 to 10 nM	0.01 to 10 nM
COc1cc(-c2nn3c(c2C(N)=O)CN(C(=O)Nc2ccc(C#N)cc2)CC3)ccc1F [Compound 280, N^5-(4-Cyanophenyl)-2-(4-fluoro-3-methoxyphenyl)-6,7-dihydropyrazolo[1,5-a] pyrazine-3,5(4H)-dicarboxamide]	0.01 to 10 nM	0.01 to 10 nM
CC1Cn2nc(-c3cccc(Cl)c3)c(C(N)=O)c2CN1C(=O)Nc1ccc(C#N)cc1 (single isomer, unassigned) [Compound 332, 2-(3-Chlorophenyl)-N^5-(4-cyanophenyl)-6-methyl-6,7-dihydropyrazolo[1,5-a]pyrazine-3,5(4H)-dicarboxamide]	0.01 to 10 nM	0.01 to 10 nM
COc1cccc(-c2nn3c(c2C(N)=O)CN(C(=O)NC(C)(C)C)CC3)c1 [Compound 109, N^5-(tert-Butyl)-2-(3-methoxyphenyl)-6,7-dihydropyrazolo[1,5-a]pyrazine-3,5(4H)-dicarboxamide]	0.01 to 10 nM	0.01 to 10 nM
Cn1cc2c(F)cc(-c3nn4c(c3C(N)=O)CN(C(=O)Nc3ccc(C#N)cc3)CC4)cc2n1 [Compound 328]	10 to 100 nM	10 to 100 nM
N#Cc1ccc(NC(=O)N2CCn3nc(-c4cccc(Cl)c4)c(C(N)=O)c3C2)cc1OC(F)(F)F [Compound A39, 2-(3-Chlorophenyl)-N^5-(4-cyano-3-(trifluoromethoxy)phenyl)-6,7-dihydropyrazolo[1,5-a]pyrazine-3,5(4H)-dicarboxamide]	0.01 to 10 nM	0.01 to 10 nM
NC(=O)c1c(-c2cncc(Cl)c2)nn2c1CN(C(=O)Nc1ccc(Cl)c(Cl)c1)CC2 [Compound 299, 2-(5-Chloropyridin-3-yl)-N^5-(3,4-dichlorophenyl)-6,7-dihydropyrazolo[1,5-a]pyrazine-3,5(4H)-dicarboxamide]	0.01 to 10 nM	0.01 to 10 nM
Cc1cc(NC(=O)N2CCn3nc(-c4ccc(Cl)c(Cl)c4)c(C(N)=O)c3C2)ccc1C#N [Compound 214, N^5-(4-Cyano-3-methylphenyl)-2-(3,4-dichlorophenyl)-6,7-dihydropyrazolo[1,5-a] pyrazine-3,5(4H)-dicarboxamide]	0.01 to 10 nM	0.01 to 10 nM
CS(=O)(=O)c1ccc(NC(=O)N2CCn3nc(-c4ccc(F)c(Cl)c4)c(C(N)=O)c3C2)nc1 [Compound 195, 2-(3-Chloro-4-fluorophenyl)-N^5-(5-(methylsulfonyl)pyridin-2-yl)-6,7-dihydropyrazolo[1,5-a] pyrazine-3,5(4H)-dicarboxamide]	0.01 to 10 nM	0.01 to 10 nM
CC(C)(NC(=O)N1CCn2nc(-c3cccc(F)c3)c(C(N)=O)c2C1)c1ccc(F)cc1 [Compound 17, 2-(3-Fluorophenyl)-N^5-(2-(4-fluorophenyl)propan-2-yl)-6,7-dihydropyrazolo[1,5-a]pyrazine-3,5(4H)-dicarboxamide]	–	0.01 to 10 nM
CC(C)(NC(=O)N1CCn2nc(-c3cccc(F)c3)c(C(N)=O)c2C1)c1ccccc1 [Compound 25, 2-(3-Fluorophenyl)-N^5-(2-phenylpropan-2-yl)-6,7-dihydropyrazolo[1,5-a]pyrazine-3,5(4H)-dicarboxamide]	–	0.01 to 10 nM
N#Cc1ccc(NC(=O)N2Cc3c(C(N)=O)c(-c4ccc(F)c(Cl)c4)nn3[C@H](C(F)F)C2)cc1Cl [Compound A18, (S)—N^5-(3-Chloro-4-cyanophenyl)-2-(3-chloro-4-fluorophenyl)-7-(difluoromethyl)-6,7-dihydropyrazolo[1,5-a]pyrazine-3,5(4H)-dicarboxamide]	–	0.01 to 10 nM
NC(=O)c1c(-c2cccc(F)c2)nn2c1CN(C(=O)Nc1cncnc1)CC2 [Compound 84, 2-(3-Fluorophenyl)-N^5-(pyrimidin-5-yl)-6,7-dihydropyrazolo[1,5-a]pyrazine-3,5(4H)-dicarboxamide]	–	0.01 to 10 nM
NC(=O)c1c(-c2cccc(F)c2)nn2c1CN(C(=O)NC1CCN(S(=O)(=O)C3CC3)CC1)CC2 [Compound 102, N^5-(1-(Cyclopropylsulfonyl)piperidin-4-yl)-2-(3-fluorophenyl)-6,7-dihydropyrazolo[1,5-a]pyrazine-3,5(4H)-dicarboxamide]	–	0.01 to 10 nM
COc1cc(F)cc(-c2nn3c(c2C(N)=O)CN(C(=O)NC(C)(C)C)CC3)c1 [Compound 137, N^5-(tert-Butyl)-2-(3-fiuoro-5-methoxyphenyl)-6,7-dihydropyrazolo[1,5-a]pyrazine-3,5(4H)-dicarboxamide]	–	0.01 to 10 nM
NC(=O)c1c(-c2cccc(F)c2)nn2c1CN(C(=O)Nc1cccnc1)CC2 [Compound 68, 2-(3-Fluorophenyl)-N^5-(pyridin-3-yl)-6,7-dihydropyrazolo[1,5-a]pyrazine-3,5(4H)-dicarboxamide]	–	0.01 to 10 nM
NC(=O)c1c(-c2ccc(F)cc2)nn2c1CN(C(=O)NC1CCCCC1)CC2 [Compound 3, N^5-Cyclohexyl-2-(4-fluorophenyl)-6,7-dihydropyrazolo[1,5-a]pyrazine-3,5(4H)-dicarboxamide]	–	0.01 to 10 nM
NC(=O)c1c(-c2cccc(F)c2)nn2c1CN(C(=O)Nc1ccc(OC(F)F)cc1)CC2 [Compound 89, N^5-(4-(Difluoromethoxy)phenyl)-2-(3-fluorophenyl)-6,7-dihydropyrazolo[1,5-a]pyrazine-3,5(4H)-dicarboxamide]	–	0.01 to 10 nM
COc1ccc(NC(=O)N2CCn3nc(-c4cccc(F)c4)c(C(N)=O)c3C2)cc1OC [Compound 66, N^5-(3,4-Dimethoxyphenyl)-2-(3-fluorophenyl)-6,7-dihydropyrazolo[1,5-a]pyrazine-3,5(4H)-dicarboxamide]	–	0.01 to 10 nM
NC(=O)c1c(-c2cccc(F)c2)nn2c1CN(C(=O)Nc1cc(Cl)ccc1F)CC2 [Compound 33, N^5-(5-Chloro-2-fluorophenyl)-2-(3-fluorophenyl)-6,7-dihydropyrazolo[1,5-a]pyrazine-3,5(4H)-dicarboxamide]	–	0.01 to 10 nM
CC(=O)N1CCC(NC(=O)N2CCn3nc(-c4cccc(F)c4)c(C(N)=O)c3C2)CC1 [Compound 97]	–	0.01 to 10 nM
Cc1ccc(NC(=O)N2CCn3nc(-c4cccc(F)c4)c(C(N)=O)c3C2)cn1 [Compound 86, 2-(3-Fluorophenyl)-N^5-(6-methylpyridin-3-yl)-6,7-dihydropyrazolo[1,5-a]pyrazine-3,5(4H)-dicarboxamide]	–	0.01 to 10 nM
NC(=O)c1c(-c2cccc(F)c2)nn2c1CN(C(=O)Nc1ccnc(Cl)c1)CC2 [Compound 90, N^5-(2-Chloropyridin-4-yl)-2-(3-fluorophenyl)-6,7-dihydropyrazolo[1,5-a]pyrazine-3,5(4H)-dicarboxamide]	–	0.01 to 10 nM
